Target: T1, Recombinant human CYP3A4 enzyme (Homo sapiens, UniProt P08684)
T1 construct: purchased BD company lot number 3100772
Assay: Evaluation of recombinant human CYP3A4 metabolism in vitro
Type: in vitro ADME
Settings: for Elimination Rate in vitro: recombinant human CYP3A4 enzyme, test compound 100 nM, NADPH 2 mM, pH 7.4, samples at 1, 5, 10, 20, 30 min; for conversion rate relative to that of PA4102: recombinant human CYP3A4 enzyme in vitro, ratio to PA4102 (Table 4)
Description: Example 12 Evaluation of Recombinant Human CYP3A4 Metabolism In Vitro
Recombinant human CYP3A4 enzyme was purchased from BD company, lot number 3100772.
Test compounds PA4101, PA4102, PA4103, PA4104, PA4105, PA4106, PA4107, PA4108, PA4109, PA4110 and PA4111 were synthesized by Zhejiang Palo Alto Pharmaceuticals, Inc., and dissolved in methanol (from Sinopharm Chemical Reagent Co., Ltd.) to prepare a storage solution of a concentration of 100 μM.
Enzymatic reaction was carried out in 100 mM KH2PO4 buffer solution (pH 7.4), the concentration of the test compounds was 100 nM, the concentration of human liver microsomes was 0.1 nmol/ml, and NADPH concentration was 2 mM. The reaction was initiated by NADPH finally added, and after reaction for 1, 5, 10, 20, 30 min in a constant-temperature shaking water bath kettle, samples were taken, and 1.5 times of volume of methanol was immediately added to terminate the reaction.
3) Sample Processing and Analysis Method
The centrifugation was carried out for 20 minutes at a maximum speed of 13,600 rpm using an Eppendorf tabletop centrifuge. Supernatant was taken, and after being blow-dried by a nitrogen blower, the supernatant was re-dissolved into a mobile phase A (0.1% formic acid v/v aqueous solution).
Analytical column: Waters, Acquity UPLC HSS T3 column • Flow rate: 0.5 ml/min • Column temperature: 45° C.
III Mass Spectrometry Condition
An ion source was an electrospray ionization source (Turbo Ionspray); a positive ion mode; a capillary voltage was 3.0 kV; a temperature was 500° C.; a desolventizing airflow was 1000 L/h; and scan time, cone voltage, collision energy and ion response for quantitative analysis are shown in the following table (Table 3): […]

T1 sequence (P08684 whole entry): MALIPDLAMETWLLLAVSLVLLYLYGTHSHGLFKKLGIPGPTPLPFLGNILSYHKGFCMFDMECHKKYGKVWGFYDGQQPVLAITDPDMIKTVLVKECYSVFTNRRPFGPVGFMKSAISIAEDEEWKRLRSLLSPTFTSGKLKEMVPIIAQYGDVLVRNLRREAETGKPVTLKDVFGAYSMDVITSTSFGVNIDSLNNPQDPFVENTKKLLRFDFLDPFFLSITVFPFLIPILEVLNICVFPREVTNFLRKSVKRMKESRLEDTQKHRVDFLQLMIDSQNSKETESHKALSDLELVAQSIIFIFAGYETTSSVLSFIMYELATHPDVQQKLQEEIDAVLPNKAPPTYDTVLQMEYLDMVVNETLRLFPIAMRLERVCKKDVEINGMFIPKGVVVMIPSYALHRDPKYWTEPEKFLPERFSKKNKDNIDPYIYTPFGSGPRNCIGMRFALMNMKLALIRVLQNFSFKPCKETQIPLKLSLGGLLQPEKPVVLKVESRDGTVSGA

SMILES | Elimination Rate in vitro | conversion rate relative to that of PA4102
Nc1ccn([C@@H]2O[C@H](COP3(=O)OCC[C@H](c4ccc(F)c(Cl)c4)O3)[C@@H](O)[C@@H]2O)c(=O)n1 (some centres unmarked) [PA4105] | 5.79 ml/min/gprot | 
Nc1ccn([C@@H]2O[C@H](COP3(=O)OCC[C@H](c4ccc(Cl)c(F)c4)O3)[C@@H](O)[C@@H]2O)c(=O)n1 (some centres unmarked) [PA4106] | 14.9 ml/min/gprot | 
Nc1ccn([C@@H]2O[C@H](COP3(=O)OCC[C@H](c4ccncc4)O3)[C@@H](O)[C@@H]2O)c(=O)n1 (some centres unmarked) [PA4102, reference compound] | 3.26 ml/min/gprot | 
Nc1ccn([C@@H]2O[C@H](COP3(=O)OCC[C@H](c4cc(F)cc(F)c4)O3)[C@@H](O)[C@@H]2O)c(=O)n1 (some centres unmarked) [PA4104] | 2.93 ml/min/gprot | 
Nc1ccn([C@@H]2O[C@H](COP3(=O)OCC[C@H](c4cc(Cl)cc(Cl)c4)O3)[C@@H](O)[C@@H]2O)c(=O)n1 (some centres unmarked) [PA4103] | 23.1 ml/min/gprot | 
Nc1ccn([C@@H]2O[C@H](COP3(=O)OCC[C@H](c4cc(Cl)ccc4F)O3)[C@@H](O)[C@@H]2O)c(=O)n1 (some centres unmarked) [PA4101] | 35.0 ml/min/gprot | ~10.7 times

Further lines, results first:

Elimination Rate in vitro | conversion rate relative to that of PA4102 | SMILES
23.6 ml/min/gprot | ~7.24 times | Nc1ccn([C@@H]2O[C@H](COP3(=O)OCC[C@H](c4cc(F)ccc4Cl)O3)[C@@H](O)[C@@H]2O)c(=O)n1 (some centres unmarked) [PA4108]
67.3 ml/min/gprot | about 20.6 times | Nc1ccn([C@@H]2O[C@H](COP3(=O)OCC[C@H](c4cc(Cl)ccc4Cl)O3)[C@@H](O)[C@@H]2O)c(=O)n1 (some centres unmarked) [PA4109]
8.37 ml/min/gprot |  | Nc1ccn([C@@H]2O[C@H](COP3(=O)OCC[C@H](c4cc(F)ccc4F)O3)[C@@H](O)[C@@H]2O)c(=O)n1 (some centres unmarked) [PA4110]
9.55 ml/min/gprot |  | Nc1ccn([C@@H]2O[C@H](COP3(=O)OCC[C@H](c4cccc(F)c4F)O3)[C@@H](O)[C@@H]2O)c(=O)n1 (some centres unmarked) [PA4111]
8.28 ml/min/gprot |  | Nc1ccn([C@@H]2O[C@H](COP3(=O)OCC[C@H](c4cccc(Cl)c4F)O3)[C@@H](O)[C@@H]2O)c(=O)n1 (some centres unmarked) [PA4107]
